Experimental data as given in paper PMC8344375 (Biochemistry, 2015).
Where “and” joins values, the source holds several entries; their conditions need not be identical. Equal values may be shown once. Read-outs that look alike come from different tables or passages of the source.

Assays:
wt Cb H-NOX [1] = format: binding
wt Tt H-NOX [2] = format: binding
[3] = system: 6c NO-heme-His complex in wt Cb H-NOX; format: binding, Clostridium botulinum
wt Cb H-NOX [4] = details: cited from earlier work
wt Tt H-NOX [5] = details: cited from earlier work
sGC = details: cited from earlier work

For nitric oxide [NO], which “NO dissociation rate, fast phase” value (wt Cb H-NOX [1]) is on record?
Its value is 0.011 s⁻¹.

And the “koff (NO)” value (wt Cb H-NOX [1])?
The value was 0.012 s⁻¹.

What about the “koff of 5c NO-heme complex” value (wt Cb H-NOX [1]) of the same molecule?
The value was 1.1 × 10^−3a s^−1.

And the “kon (NO)” value (wt Cb H-NOX [1])?
The value was 1.5e+08 M⁻¹ s⁻¹.

What about the Kd (wt Cb H-NOX [1]; read-out: KD (NO)) of the same molecule?
Its Kd is 0.08 nM.

What about the “koff (NO)” value (wt Tt H-NOX [2]) of the same molecule?
Its value is 0.0034 s⁻¹.

What about the “kon (NO)” value (wt Tt H-NOX [2]) of the same molecule?
Its value is 1.5e+08 M⁻¹ s⁻¹.

And the Kd (wt Tt H-NOX [2]; read-out: KD (NO))?
The Kd was 0.023 nM.

What about the “k2 (quaternary complex to 5c NO-heme)” value [3] of the same molecule?
The value was ~ 790 s^−1.

And the Kd ([3]; read-out: KD (reaction I, NO binding to 6c NO-heme-His))?
Its Kd is about 570 µM.

What about the Kd ([3]; read-out: KD of reaction I) of the same molecule?
Its Kd is 1100 µM.

And the “koff (NO)” value (wt Cb H-NOX [4])?
Its value is 3 × 10^−6c s^−1.

What about the “kon (NO)” value (wt Cb H-NOX [4]) of the same molecule?
Its value is ~ 10^8c M^−1 s^−1.

And the “koff (NO)” value (wt Tt H-NOX [5])?
The value was 0.00056 s⁻¹.

What about the “koff for 5c NO-heme” value (sGC) of the same molecule?
Its value is 0.0006 s⁻¹.

What about the “koff(NO) of 6c NO-sGC complex” value (sGC) of the same molecule?
The value was 27 s⁻¹.

What about the Kd (sGC; read-out: KD(NO)(6c)) of the same molecule?
The Kd was 0.054 µM.

With `O=O` [O2, oxygen] as the molecule, how does the Kd (wt Cb H-NOX [1]; read-out: KD (O2)) read?
Its Kd is 53000 nM.

What about the “koff (O2)” value (wt Tt H-NOX [2]) of the same molecule?
The value was 1.9 s⁻¹.

And the “kon (O2)” value (wt Tt H-NOX [2])?
Its value is 4.3e+07 M⁻¹ s⁻¹.

What about the Kd (wt Tt H-NOX [2]; read-out: KD (O2)) of the same molecule?
The Kd was 44 nM.

And the “koff (O2)” value (wt Tt H-NOX [5])?
The value was 1.2^f s^−1 and 1.2^e s^−1.

And the “kon (O2)” value (wt Tt H-NOX [5])?
The value was 2.5 × 10^7f M^−1 s^−1 and 1.36 × 10^7e M^−1 s^−1.

What about the Kd (wt Tt H-NOX [5]; read-out: KD (O2)) of the same molecule?
The Kd was 0.048 µM and 0.0897 µM.

With `[C-]#[O+]` [CO, Carbon monoxide] as the molecule, how does the “koff (CO)” value (wt Cb H-NOX [1]) read?
Its value is 1.0 s⁻¹.

What about the “kon (CO)” value (wt Cb H-NOX [1]) of the same molecule?
The value was 1.5e+06 M⁻¹ s⁻¹.

And the Kd (wt Cb H-NOX [1]; read-out: KD (CO))?
The Kd was 670 nM.

And the “koff (CO)” value (wt Tt H-NOX [2])?
Its value is 0.5 s⁻¹.

And the “kon (CO)” value (wt Tt H-NOX [2])?
Its value is 3.3e+06 M⁻¹ s⁻¹.

And the Kd (wt Tt H-NOX [2]; read-out: KD (CO))?
The Kd was 160 nM.

What about the “kon (CO)” value (wt Cb H-NOX [4]) of the same molecule?
The value was 1.5 × 10^6d M^−1 s^−1.

And the “koff (CO)” value (wt Tt H-NOX [5])?
The value was 3.56^g s^−1.

And the “kon (CO)” value (wt Tt H-NOX [5])?
Its value is 4.1e+06 g/M/s and 2.18e+06 g/M/s.
